Where “and” joins values, the source holds several entries; their conditions need not be identical. Equal entries are not always repeated.
Columns and labels:
[1] = tested on: Trypanosoma brucei brucei; test: microbe, parasite or virus in culture; assay type: functional, organism-based, STIB 795
Description: DNDI: Inhibition of Human African Trypanosomiasis (HAT), STIB 795, in vitro

[2] = DNDI: Cytotoxicity against human MRC-5 lung fibroblast cells.; details: IC50

| SMILES | IC50 ([1]; Trypanosoma brucei, STIB 795) [µM] | IC50 [2] [µM] | IC50 [1] |
| --- | --- | --- | --- |
| CCOC(=O)/C=C\n1nnc2ccccc21 | 0.503 | > 41.7 | – |
| O=C1Nc2ccc(OC(F)(F)F)cc2C1=O | 4.72 | > 41.7 | – |
| O=C1/C(=C\c2cccnc2)CCc2ccccc21 | 5.02 | > 20.8 | – |
| Cc1[nH]c2ccccc2c1/C=C1\SC(=N)N(c2nccs2)C1=O | 2.15 | > 20.8 | – |
| C=CCS(=O)(=O)c1nc2ccccc2s1 | 5.73 | > 20.8 | – |
| Cc1cc(C)c2c(N)c3cccc(C)c3nc2n1 | 0.35 | 0.9 | – |
| NCCc1c[nH]c2ccc(C3CCCCC3)cc12 | 1.28 | > 20.8 | – |
| Clc1ccc2nnnc(-c3ccccc3)c2c1 | 2.81 | 4.48 | – |
| NC1=C(Cl)C(=O)c2ccccc2C1=O | 2.44 | > 41.7 | – |
| CN(C)c1ccc(/C=C/c2cc[n+](C)cc2)cc1 | 0.458 | > 20.8 | – |
| Cc1ccccc1C(=O)Nc1ccccn1 | 1.22 | > 41.7 | – |
| Nc1ccc2ccc3cccnc3c2n1 | 2.4 | > 4.17 | – |
| CN(C)c1ccc(/C=C/c2sc3ccc4ccccc4c3[n+]2C)cc1 | < 0.004 | > 2.08 | – |
| Oc1nncc(N/N=C/c2ccccn2)n1 | 5.64 | > 20.8 | – |
| CC1=NN(C(=O)c2ccccc2O)C(C)(O)C1 (centres undefined) | 0.66 | > 1.04 | – |
| Oc1c(C(c2ccc(C(F)(F)F)cc2)N2CCOCC2)ccc2cccnc12 (centres undefined) | 5.43 | > 20.8 | – |
| CC(=O)NC(=S)NNC(=O)c1ccccc1OCc1ccccc1 | 2.88 | > 20.8 | – |
| COc1ccc(N2C(=O)CN(Cc3ccccc3)C2=S)cc1Cl | 5.49 | > 41.7 | – |
| COc1ccc(C(=O)C(C)N2C=CC=C/C2=C2\C=CC=CN2)cc1 (centres undefined) | 4.25 | > 41.7 | – |
| CC[n+]1c(/C=C2\SC=C(c3ccccc3)N2C)ccc2cc(C)ccc21 | 0.416 | > 10.4 | – |
| O=C(CC1(O)C(=O)Nc2ccc(I)cc21)c1cccs1 (centres undefined) | 0.931 | > 41.7 | – |

| SMILES | IC50 ([1]; Trypanosoma brucei, STIB 795) [µM] | IC50 [2] [µM] | IC50 [1] |
| --- | --- | --- | --- |
| COc1ccc(-c2nc(Nc3ccc(F)cc3F)c3ccccc3n2)cc1OC | 7.04 | > 41.7 | – |
| CCOC(=O)c1ccc(CN2C(=O)C(=O)c3cc(OC(F)(F)F)ccc32)o1 | 4.03 | > 20.8 | – |
| COc1ccc(N2C(=O)CN(Cc3sccc3C)C2=S)cc1Cl | 4.94 | > 41.7 | – |
| O/N=C1C=C/C(=N\O)c2ncccc2/1 | 2.32 | 4.89 | – |
| Cc1ccc(CN(C)C)c(O)c(=O)c1 | 5.63 | > 20.8 | – |
| O=C(O)c1n[nH]c2c1CCCCCC2 | ≤ 2.64 | > 4.17 | – |
| CCc1ccc(/C=N\n2cnnc2)cc1 | 0.647 | > 41.7 | – |
| CC(=O)Cc1ccc2cccc(O)c2n1 | 4.56 | > 4.17 | – |
| Clc1ccnc2c1ccc1nn[nH]c12 | 4.39 | > 41.7 | – |
| CCOc1ccc(/C=N/NC(=N)N)cc1 | 5.66 | > 41.7 | – |
| Nc1ccsc1/C=C/c1cccs1 | 5.05 | > 41.7 | – |
| Cc1n[nH]c(C)c1/N=N/N1CCOCC1 | 0.7 | 3.61 | – |
| OC12C[C@@H](C3CO[C@@H]1O3)n1nnnc1N2 | 4.84 | > 20.8 | – |
| [O-][n+]1onc2cc(Cl)c3nonc3c21 | 5.23 | > 4.17 | – |
| O=C(c1ccccc1)c1ccc(O)c(O)c1 | 1.2 | > 41.7 | – |
| Oc1cccc2ccc(CNC3CC3)nc12 | 5.36 | > 20.8 | – |
| Cc1nc2c(cc(O)c3ccccc32)s1 | 5.47 | > 41.7 | – |
| Cc1cc(C)c2c(c1)CC(C)(C)C(=O)C2=O | 3.3 | > 41.7 | – |
| Cc1cc(Cl)c2c(N)c(C)cc(C)c2n1 | 4.09 | > 41.7 | – |
| NC1CCCc2c1[nH]c1ccc(Cl)cc21 (centres undefined) | – | > 20.8 | 0.823 µM and 2.29 µM |
| NC(N)=N/N=C1/C(=O)Nc2ccc(F)cc21 | 1.42 | > 41.7 | – |

| SMILES | IC50 ([1]; Trypanosoma brucei, STIB 795) [µM] | IC50 [2] [µM] | IC50 [1] |
| --- | --- | --- | --- |
| O=C1Nc2ccccc2/C1=C/c1ccccn1 | 5.25 | > 20.8 | 5.23 µM |
| C=CCNc1nc(N)c(/C(N)=N\C#N)s1 | 3.21 | > 41.7 | – |
| CC1(C)CC(=S)C=C(N2CCCCC2)C1 | 1.95 | > 41.7 | – |
| CCn1c2cccc(=O)c-2nc2ccccc21 | < 0.04 | > 20.8 | – |
| Nc1ccc(Nc2coc3ccccc23)cc1 | 3.68 | > 20.8 | – |
| CSC(=S)N/N=C(\C)c1ccncn1 | 5.02 | > 4.17 | – |
| O=C(NO)c1sc2ccccc2c1Cl | 3.76 | > 41.7 | – |
| COc1cccc2c(N)c3c(cnn3C)nc12 | 1.21 | > 4.17 | – |
| CC(C)(C)c1ccc(/C=N/n2cnnc2)cc1 | 0.49 | > 41.7 | – |
| NC(=O)c1ccc(Nc2ccccc2)[nH]c1=O | 5.52 | 5.28 | – |
| Cc1ccc(C(=O)C(CO)n2ccnc2)cc1 (centres undefined) | 2.05 | > 41.7 | – |
| Cc1cc(Cl)n(C)c2nc3ccccc3c1-2 | 0.631 | > 10.4 | – |
| CC(C)(C)C/C(=N\NC(=N)N)c1ccccc1 | 5.39 | > 20.8 | – |
| C/N=c1\nnc(Nc2ccccc2O)c(N)o1 | 0.287 | 4.68 | – |
| Cc1cccc(N2CCN(CCN)CC2)c1C | 5.21 | > 41.7 | – |
| CCCCOc1ccccc1/C=N/NC(=N)N | 5.38 | > 41.7 | – |
| O=C(COc1ccc(Cl)cc1Cl)NO | 0.921 | > 20.8 | – |
| CCCCNCc1[nH]c2ccccc2c1Cl | 3.1 | > 20.8 | – |
| CCN1CCO/C1=C\C=C\C1=[N+](CC)CCO1 | 0.166 | > 41.7 | – |
| Nc1ccc2c(c1)C(=O)C(=O)c1cc(N)ccc1-2 | 0.975 | > 20.8 | – |
| O=C1CN(Cc2ccccc2)c2ccccc2N1 | 1.01 | 8.3 | – |

| SMILES | IC50 ([1]; Trypanosoma brucei, STIB 795) [µM] | IC50 [2] [µM] | IC50 [1] |
| --- | --- | --- | --- |
| CCCCOc1ccc(CSC(=N)N)cc1 | 5.48 | > 20.8 | – |
| O=C(NNc1cccccc1=O)c1ccccc1 | 5.18 | > 10.4 | – |
| CN1c2ccccc2N(C)C1c1ccc(O)cc1 | 3.47 | > 41.7 | – |
| C/C(CC(C)(C)C1CCCCC1)=N/NC(N)N | 1.4 | > 4.17 | – |
| CC1=NN(c2ccc3cccc(O)c3n2)C(=O)C1 | 1.31 | > 10.4 | – |
| Cn1cnn(C2CC(=O)C3OCC2O3)c1=S (centres undefined) | 3.7 | > 20.8 | 2.07 µM |
| CC1CC2=C(C(=O)c3ccccc3C2=O)C(C)O1 (centres undefined) | 5.59 | > 41.7 | – |
| COc1ccc(O)c(/C=N/Nc2ccccn2)c1 | 4.69 | > 20.8 | – |
| CNC(C)(C)Cc1c2c(cc3c1CCC3)CCC2 | 4.62 | > 41.7 | – |
| N=c1n(Cc2ccccc2)c2ccccc2n1CC(O)c1ccc(Cl)cc1 (centres undefined) | 5.48 | > 20.8 | 5.31 µM |
| O=S1(=O)Nc2c(ccc3cccnc23)-c2ccccc21 | 2.87 | > 20.8 | – |
| CC1=CC(C)(C)N=C(Nc2nc(C)c3cc(C)cc(C)c3n2)N1 | 3.73 | 5.93 | – |
| CN1CCN(Nc2ccnc3cc4ccccc4cc23)CC1 | 0.357 | 3.36 | – |
| CCN1C(=Cc2sc3ccc(Cl)cc3[n+]2CC)C=Cc2cc(OC)ccc21 | 0.706 | > 4.17 | – |
| Cc1cc(NC2CCCCC2)nc(NCc2ccccc2)n1 | 4.49 | > 41.7 | – |
| Oc1c(CN2CCCCC2)ccc2cccnc12 | 3.78 | > 4.17 | – |
| CN1/C(=C/c2cccc[n+]2C)Sc2ccccc21 | 0.477 | > 20.8 | – |
| CCCc1c(CC)c(=N)c2ccccc2n1C | 4.55 | > 41.7 | – |
| CCN1C(C)=C(C)S/C1=C\c1ccc2cc(C)ccc2[n+]1C | 0.317 | > 4.17 | – |
| CC(C)(C)C1CCc2nc(N)nc(N)c2C1 (centres undefined) | ≤ 3.36 | > 4.17 | – |
